The subject of one data set is Smn protein. The data set is described as follows: Smn protein assay in cultured cells (SMN HTRF). It counts as cell-based, human. The settings on record: 48 hours; for EC1.5x (concentration giving 1.5-fold Smn protein increase): SMA Type 1 patient fibroblast cells (GM03813), 7-point concentration curve, SMN HTRF, concentration producing 1.5 times Smn protein vs DMSO vehicle control, read-out: EC1.5x for Smn protein expression; for maximum fold (Fold) increase of Smn protein: SMA patient fibroblast cells, 7-point concentration data, fold increase relative to vehicle control (SMN HTRF). Summed up:
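Smn in SMA fibroblast lysates, measured by anti-SMN HTRF after 48 h compound exposure; EC1.5x from fold change over vehicle.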
(In general: Time-resolved FRET reads energy transfer from a long-lived donor to a nearby acceptor.)

Data set [1] deals with SMN2 minigene (full length SMN2 minigene mRNA containing SMN2 exon 7). Briefly: SMN2 minigene mRNA splicing RT-qPCR assay in cultured cells. It counts as cell-based, human. The settings on record: Homo sapiens, HEK293-H, read-out: EC1.5x for production of full length SMN2 mRNA. Summed up: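 Lysates → one-step RT-qPCR, minigene-specific primers (0.4 μM final) + GAPDH multiplex, 40 cycles. FL/GAPDH vs DMSO; EC1.5x, star-binned.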
(In general: Real-time PCR tracks product formation cycle by cycle.)

[2] abbreviates: HEK293H cells stably transfected with SMN2-A minigene, 24 hours, 7-point concentration curve, 1.5-fold relative to vehicle-treated cells.

We go through 21 molecules from USRE47689E1, “Compounds for treating spinal muscular atrophy” (PTC Therapeutics, Inc., priority 2011, dated 2019).

Like-named read-outs stand apart in the source and are kept apart here.

As a reminder, the melting point is the temperature, or range, at which the solid turns liquid. For the molecule `Cc1cc2cc(-c3cc4ccc(N5CCN(CCO)CC5)cc4oc3=O)oc2c(C)n1` [Compound 774, 3-(5,7-dimethylfuro[2,3-c]pyridin-2-yl)-7-[4-(2-hydroxyethyl)piperazin-1-yl]-2H-chromen-2-one], the melting point lay in the range of 203 to 205 °C. In the data set on Smn protein, the EC1.5x (concentration giving 1.5-fold Smn protein increase) is below 300 nM; the “maximum fold (Fold) increase of Smn protein” value (“maximum fold (Fold) increase” below) is “**** (fold increase between >1.5 and ≤1.65)”. In data set [1] (setting [2]), the EC (1.5-fold) is below 0.1 µM.

`Cc1ccc(-c2cc3ccc(N4CCN(C)CC4)cc3oc2=O)cn1` [Compound 164, 7-(4-methylpiperazin-1-yl)-3-(6-methylpyridin-3-yl)-2H-chromen-2-one]: the melting point lay within 158 to 160 °C. In addition, the “maximum fold (Fold) increase” value with Smn protein is listed as “* (maximum fold increase of ≤1.2)”. Besides, in data set [1] (setting [2]), the EC (1.5-fold) was in the range of 1 to 3 µM.

`Cc1cn2cc(-c3cc4ccc(N5CCN(C)CC5)cc4oc3=O)ccc2n1` [Compound 678, 3-(2-methylimidazo[1,2-a]pyridin-6-yl)-7-(4-methylpiperazin-1-yl)-2H-chromen-2-one] had a melting point of 235 to 238 °C. In addition, in the data set with Smn protein, the EC1.5x (concentration giving 1.5-fold Smn protein increase) was below 300 nM and the “maximum fold (Fold) increase” value is “***** (fold increase >1.65)”. The EC (1.5-fold) in data set [1] (setting [2]) was below 0.1 µM.

Regarding `Cc1cn2cc(-c3cc4ccc(OC5CCNCC5)cc4oc3=O)nc2c(C)n1` [Compound 897, 3-(6,8-dimethylimidazo[1,2-a]pyrazin-2-yl)-7-(piperidin-4-yloxy)-2H-chromen-2-one], the melting point fell in the range of 172 to 177 °C. Besides, in the data set with Smn protein, the EC1.5x (concentration giving 1.5-fold Smn protein increase) is below 300 nM and the “maximum fold (Fold) increase” value is recorded as “***** (fold increase >1.65)”. In addition, in data set [1] (setting [2]), the EC (1.5-fold) was below 0.1 µM.

Turning to `Cc1cn2cc(-c3cc4ccc(CCCCN5CCNCC5)cc4oc3=O)nc2c(C)n1` [Compound 905, 3-(6,8-dimethylimidazo[1,2-a]pyrazin-2-yl)-7-[4-(piperazin-1-yl)butyl]-2H-chromen-2-one], the melting point fell in the range of 187 to 191 °C. Also, in the data set with Smn protein, the EC1.5x (concentration giving 1.5-fold Smn protein increase) lay within 1000 to 3000 nM; the “maximum fold (Fold) increase” value was “**** (fold increase between >1.5 and ≤1.65)”. Also, the EC (1.5-fold) in data set [1] (setting [2]) lay in the range of 1 to 3 µM.

As for `Cc1ccc2nc(-c3cc4ccc(N5CCNCC5)cc4oc3=O)cn2c1` [Compound 51, 3-(6-methylimidazo[1,2-a]pyridin-2-yl)-7-(piperazin-1-yl)-2H-chromen-2-one], the melting point was 229 to 232 °C. Also, in the data set on Smn protein, the EC1.5x (concentration giving 1.5-fold Smn protein increase) was below 300 nM and the “maximum fold (Fold) increase” value is “***** (fold increase >1.65)”. Further, in data set [1] (setting [2]), the EC (1.5-fold) lay in the range of 0.1 to 0.3 µM.

Molecule `CC1(C)CN(c2ccc3cc(-c4cn5ccc(C(F)(F)F)cc5n4)c(=O)oc3c2)CCN1` [Compound 269, 7-(3,3-dimethylpiperazin-1-yl)-3-[7-(trifluoromethyl)imidazo[1,2-a]pyridin-2-yl]-2H-chromen-2-one] had a melting point of 221 to 227 °C. The “maximum fold (Fold) increase” value in the data set on Smn protein was “* (maximum fold increase of ≤1.2)”. In data set [1] (setting [2]), the EC (1.5-fold) was 1 to 3 µM.

`CN1CCCN(c2ccc3cc(-c4cn5cc(Cl)cnc5n4)c(=O)oc3c2)CC1` [Compound 337, 3-(6-chloroimidazo[1,2-a]pyrimidin-2-yl)-7-(4-methyl-1,4-diazepan-1-yl)-2H-chromen-2-one] yielded a melting point of 289 to 292 °C. In the data set with Smn protein, the “maximum fold (Fold) increase” value was “* (maximum fold increase of ≤1.2)”. Also, in data set [1] (setting [2]), the EC (1.5-fold) was 1 to 3 µM.

As to `O=c1oc2cc(N3CCCNCC3)cc(F)c2cc1-c1nc2c(F)cccc2o1` [Compound 368, 7-(1,4-diazepan-1-yl)-5-fluoro-3-(4-fluoro-1,3-benzoxazol-2-yl)-2H-chromen-2-one], the melting point fell in the range of 240 to 245 °C. Moreover, the “maximum fold (Fold) increase” value with Smn protein is “** (fold increase between >1.2 and ≤1.35)”. The EC (1.5-fold) in data set [1] (setting [2]) was 0.3 to 1 µM.

The molecule `Cc1cn2cc(-c3cc4ccc(C5CCNCC5)cc4oc3=O)nc2cn1` [Compound 868, 3-(6-methylimidazo[1,2-a]pyrazin-2-yl)-7-(piperidin-4-yl)-2H-chromen-2-one] displayed a melting point of 247 to 253 °C. In addition, in the data set on Smn protein, the EC1.5x (concentration giving 1.5-fold Smn protein increase) was below 300 nM and the “maximum fold (Fold) increase” value is listed as “***** (fold increase >1.65)”. For the same molecule, the EC (1.5-fold) in data set [1] (setting [2]) is below 0.1 µM.

Regarding `Cc1ccnc(Nc2cc3ccc(N4CCNCC4)cc3oc2=O)c1` [Compound 62, 3-[(4-methylpyridin-2-yl)amino]-7-(piperazin-1-yl)-2H-chromen-2-one], the melting point is 182 to 185 °C. Further, the “maximum fold (Fold) increase” value in the data set on Smn protein was “* (maximum fold increase of ≤1.2)”. Also, the EC (1.5-fold) in data set [1] (setting [2]) lay in the range of 1 to 3 µM.

With `Cc1cn2cc(-c3cc4ccc(N5CCN(C(C)(C)C)CC5)cc4oc3=O)nc2c(C)n1` [Compound 812, 7-(4-tert-butylpiperazin-1-yl)-3-(6,8-dimethylimidazo[1,2-a]pyrazin-2-yl)-2H-chromen-2-one], the melting point fell in the range of 270 to 272 °C. The “maximum fold (Fold) increase” value in the data set on Smn protein is “*** (fold increase between >1.35 and ≤1.5)”. In data set [1] (setting [2]), the EC (1.5-fold) is below 0.1 µM.

Molecule `Cc1cn2cc(-c3cc4ccc(N5CCCNCC5)cc4oc3=O)cc2c(C)n1` [Compound 682, 7-(1,4-diazepan-1-yl)-3-(1,3-dimethylpyrrolo[1,2-a]pyrazin-7-yl)-2H-chromen-2-one] returned a melting point of 187 to 190 °C. Further, in the data set on Smn protein, the EC1.5x (concentration giving 1.5-fold Smn protein increase) lay within 1000 to 3000 nM; the “maximum fold (Fold) increase” value was “*** (fold increase between >1.35 and ≤1.5)”. Moreover, in data set [1] (setting [2]), the EC (1.5-fold) is below 0.1 µM.

With `Cc1cc(Cl)c2nc(-c3cc4ccc(N5C[C@@H](C)N[C@@H](C)C5)cc4oc3=O)cn2c1` [Compound 342, 3-(8-chloro-6-methylimidazo[1,2-a]pyridin-2-yl)-7-[(3R,5S)-3,5-dimethylpiperazin-1-yl]-2H-chromen-2-one], the melting point fell in the range of 258 to 263 °C. The “maximum fold (Fold) increase” value in the data set with Smn protein was “** (fold increase between >1.2 and ≤1.35)”. Further, the EC (1.5-fold) in data set [1] (setting [2]) is 0.1 to 0.3 µM.

The molecule `Cc1cn2cc(-c3cc4ccc(N5CCCNCC5)cc4oc3=O)nc2c(C)n1` [Compound 518, 7-(1,4-diazepan-1-yl)-3-(6,8-dimethylimidazo[1,2-a]pyrazin-2-yl)-2H-chromen-2-one] registered a melting point of 188 to 190 °C. Moreover, in the data set on Smn protein, the EC1.5x (concentration giving 1.5-fold Smn protein increase) was below 300 nM and the “maximum fold (Fold) increase” value is “***** (fold increase >1.65)”. The EC (1.5-fold) in data set [1] (setting [2]) is below 0.1 µM.

With `Cc1cn2cc(-c3ccc4cc(N5CCNCC5)c(=O)oc4c3)ccc2n1` [Cpd 818, 7-(2-methylimidazo[1,2-a]pyridin-6-yl)-3-(piperazin-1-yl)-2H-chromen-2-one], the melting point was in the range of 174 to 178 °C. Besides, the “maximum fold (Fold) increase” value in the data set on Smn protein is on record as “* (maximum fold increase of ≤1.2)”. Further, the EC (1.5-fold) in data set [1] (setting [2]) lay within 1 to 3 µM.

Molecule `C[C@@H]1CN(c2ccc3cc(-c4nc5c(Cl)cccc5s4)c(=O)oc3c2)C[C@H](C)N1` [Compound 25, 3-(4-chloro-1,3-benzothiazol-2-yl)-7-[(3R,5S)-3,5-dimethylpiperazin-1-yl]-2H-chromen-2-one] displayed a melting point of 229 to 235 °C. The “maximum fold (Fold) increase” value with Smn protein is recorded as “* (maximum fold increase of ≤1.2)”. Besides, the EC (1.5-fold) in data set [1] (setting [2]) was 0.3 to 1 µM.

Take `Cc1cccn2cc(-c3cc4ccc(N5CCN[C@@H](C)C5)cc4oc3=O)nc12` [Compound 248, 3-(8-methylimidazo[1,2-a]pyridin-2-yl)-7-[(3S)-3-methylpiperazin-1-yl]-2H-chromen-2-one]: the melting point lay within 162 to 166 °C. Moreover, in the data set with Smn protein, the EC1.5x (concentration giving 1.5-fold Smn protein increase) was 1000 to 3000 nM; the “maximum fold (Fold) increase” value is “** (fold increase between >1.2 and ≤1.35)”. Besides, the EC (1.5-fold) in data set [1] (setting [2]) was 0.1 to 0.3 µM.

Molecule `Cc1cn2cc(-c3cc4ccc(N5CCN(C6CC6)CC5)cc4oc3=O)nc2cn1` [Compound 811, 7-(4-cyclopropylpiperazin-1-yl)-3-(6-methylimidazo[1,2-a]pyrazin-2-yl)-2H-chromen-2-one] gave a melting point of 287 to 289 °C. Moreover, in the data set on Smn protein, the EC1.5x (concentration giving 1.5-fold Smn protein increase) fell in the range of 300 to 1000 nM; the “maximum fold (Fold) increase” value was “**** (fold increase between >1.5 and ≤1.65)”. For the same molecule, in data set [1] (setting [2]), the EC (1.5-fold) fell in the range of 0.3 to 1 µM.

In turn, `CCN1CCN(c2ccc3cc(-c4cc5cc(C)ccn5n4)c(=O)oc3c2)CC1` [Compound 307, 7-(4-ethylpiperazin-1-yl)-3-(5-methylpyrazolo[1,5-a]pyridin-2-yl)-2H-chromen-2-one] registered a melting point of 257 to 259 °C. For the same molecule, in the data set with Smn protein, the EC1.5x (concentration giving 1.5-fold Smn protein increase) was 3000 to 10000 nM; the “maximum fold (Fold) increase” value is “*** (fold increase between >1.35 and ≤1.5)”. In addition, the EC (1.5-fold) in data set [1] (setting [2]) lay in the range of 0.3 to 1 µM.

`O=c1oc2cc(N3CC4CCC(C3)N4)ccc2cc1-c1cn2cccc(Cl)c2n1` [Compound 526, 3-(8-chloroimidazo[1,2-a]pyridin-2-yl)-7-(3,8-diazabicyclo[3.2.1]oct-3-yl)-2H-chromen-2-one] displayed a melting point of 213 to 216 °C. The “maximum fold (Fold) increase” value in the data set with Smn protein is “*** (fold increase between >1.35 and ≤1.5)”. Further, in data set [1] (24 h), the EC (1.5-fold) was 0.1 to 0.3 µM.
